Tests used:
[1] = system: Human LX-2 Hepatic Stellate Cells; experiment: Procollagen and fibronectin ELISA of spent medium, LX-2 culture; format: cell-based; details: 24 hours, both in the absence or presence of 0.1 ng/ml TGFβ
Protocol: (§1) Human LX-2 Hepatic Stellate Cells (Millipore-Sigma, Cat. #SCC064) were cultured in 96-well plates. Treatments were applied in triplicate wells (applied 100 ul treatments per well) for 24 hours. Cells were near confluence at the start of treatments. […] Spent culture medium collected at the end of the treatments was assayed for procollagen and fibronectin by enzyme-linked immunosorbent assays (ELISA) (Procollagen ELISA antibody pair (ab216064) and fibronectin ELISA antibody pair (ab222262) from Abcam). Procollagen and fibronectin were not detected in medium not applied to cells. Procollagen and fibronectin levels in the medium are represented by means±SD (bars) from 3 replicate wells (open circles).

[2] = system: Human renal mesangial cells; experiment: Procollagen and fibronectin ELISA of spent medium, renal mesangial cell culture; format: cell-based; details: medium from Day 2-4 of treatment, both in the absence or presence of 0.4 ng/ml TGFβ
Protocol: as §1, with “renal mesangial cells (ScienCell,” for “LX-2 Hepatic Stellate Cells (Millipore-Sigma,”, “#4200 (SC))” for “#SCC064)”, “2 days, then re-applied for an additional 2 days.” for “24 hours.”, “from Day 2-4” for “at the end”, “treatment” for “the treatments”

[3] = system: human precision cut liver slices (PCLS); experiment: PCLS RNA-Seq, Nonstimulation Protocol: Non-stimulated+CRV vs Non-stimulated+Vehicle; format: cell-based; details: for log2FoldChange: Non-stimulated+CRV vs Non-stimulated+Vehicle; for fold change in RNA: absence of TGFβ+PDGF-BB, universal in all donors
Protocol: PCLS were obtained from 5 human donors who underwent resection of liver cancer. Replicate slices were collected from healthy margins of the resections and cultured for 4 or 6 days depending on the experimental protocol. In the Nonstimulation Protocol slices were cultured for 6 days and treated for the entire period with DMSO vehicle or 5 μM CRV431. In the Stimulation Protocol slices were rested for 1 day and then administered the cytokines, TGFβ and PDGF-BB, for 3 days to stimulate inflammation and fibrosis. DMSO vehicle, CRV431 (1 and 5 μM), Alk5i (10 μM), obeticholic acid (5 μM), elafibranor (5 μM), resmetirom ([…]), and Aramchol (5 μM) were administered individually as drug treatments in the Stimulation Protocol concurrent with TGFβ+PDGF-BB. Culture medium treatments were replaced daily.
Four types of evaluations were conducted on the PCLS: (a) secretion of inflammation and fibrosis biomarkers into the culture medium, (b) histological staining and quantitation of Sirius red as a measure of tissue fibrosis, (c) gene expression of inflammation and fibrosis biomarkers by RT-PCR, and (d) RNA sequencing (RNA-Seq) of the complete transcriptome. Each of the four types of evaluation is described below: • (a) Biomarker secretion. Spent culture medium was collected daily from duplicate slices for each treatment. ELISAs were used to quantify secretion of monocyte chemoattractant protein (MCP-1), interleukin-6 (IL-6), tissue inhibitor of metalloproteinase-1 (TIMP1), hyaluronic acid, fibronectin, and collagen 1α1. For each donor the mean level of biomarker secretion in each treatment group was expressed as a percentage change relative to DMSO vehicle, the percentages averaged for all donors, and finally the mean daily percentage change calculated from all days of evaluation. Results are shown in FIG. 8A (secreted markers-% daily average change). • (b) Sirius red histological staining. […] Sirius red was quantified morphometrically in the histological sections as the percentage area with Sirius red staining in 10 sections from each treatment. In the Nonstimulation Protocol the quantity of Sirius red staining was expressed relative to the vehicle group. In the Stimulation Protocol the quantity of Sirius red staining was expressed relative to nonstimulated PCLS (0%) and TGFβ+PDGF-BB-stimulated+vehicle PCLS (100%). Results are shown in FIG. 8B (Sirius red staining for tissue fibrosis). • (c) Gene expression by RT-PCR. RNA was isolated from duplicate liver slices per treatment at the end of the experiments and evaluated by RT-PCR for 5 markers of inflammation and fibrosis: MCP-1, IL-6, TIMP1, αSMA, and collagen 1α1. β actin was used as a reference gene to calculate relative levels of each target gene RNA. […] Results are shown in FIG. 8C (gene expression by RT-PCR). • (d) Gene expression by RNA-Seq. RNA sequencing of the complete transcriptome (30 million reads per sample) was conducted on vehicle and 5 μM CRV431 treatment groups from 3 donors both from the Nonstimulation and Stimulation Protocols. Data were analyzed by bioinformatics software programs to identify genes that were differentially expressed between vehicle and CRV431 treatments.
For the evaluation done for (d), 12 samples corresponding to 3 different donor slides which underwent 4 different treatments were studied. the comparisons carried out in this analysis are: (1) TGFb/PDGF+CRV vs TGFb/PDGF+Vehicle (V), and (2) Non-stimulated+CRV vs Non-stimulated+Vehicle. […] Table 1. Samples for evaluation (d)
Quality Control check was performed in all samples. All samples had more than 30 million reads and a quality score average >35 for almost all the bases in the sequences. The duplication levels are expected as it is RNA sequencing, and different copies of the same RNA are expected to be present in the samples. All samples had good amount of reads and quality, therefore all samples passed the QC checked and were included in the analysis. […]

[4] = system: experimental models of NASH; details: cited from earlier work

With `CC[C@@H]1NC(=O)[C@H]([C@H](O)[C@H](C)CCCCCCNC(C)=O)N(C)C(=O)[C@H](C(C)C)N(C)C(=O)[C@H](CC(C)C)N(C)C(=O)[C@H](CC(C)C)N(C)C(=O)[C@@H](C)NC(=O)[C@H](C)NC(=O)[C@H](CC(C)C)N(C)C(=O)[C@H](C(C)C)NC(=O)[C@H](CC(C)C)N(C)C(=O)[C@@H](C)N(C)C1=O` [CRV431] the “abundance of fibronectin in the medium” value [1] was “dose-dependently decreased”, the “abundance of procollagen in the medium” value [1] was “dose-dependently decreased” and the “abundance of fibronectin in the medium” value [2] was “dose-dependently decreased”. For the same molecule, the “abundance of procollagen in the medium” value [2] was “dose-dependently decreased”, the log2FoldChange ([3]; gene ACOT9) was 0.543 and the log2FoldChange ([3]; gene AP003119.3) was −0.67. For the same molecule, the log2FoldChange ([3]; gene AREG) was 1.034, the log2FoldChange ([3]; gene CCDC149) was 0.76 and the log2FoldChange ([3]; gene CDH11) was −0.915. For the same molecule, the log2FoldChange ([3]; gene CXCL12) was 0.623, the log2FoldChange ([3]; gene CYP24A1) was −1.499 and the log2FoldChange ([3]; gene DDX60) was −0.739. For the same molecule, the “fold change in RNA” value ([3]; gene DKK1) was “+3.8 fold”, the log2FoldChange ([3]; gene DNAJB9) was 0.721 and the “fold change in RNA” value ([3]; gene ESM1) was −2.2 fold. For the same molecule, the log2FoldChange ([3]; gene GDPD5) was −0.606, the log2FoldChange ([3]; gene GMPPA) was 0.768 and the “fold change in RNA” value ([3]; gene IFI44L) was −4.8 fold. For the same molecule, the log2FoldChange ([3]; gene KRT7) was 0.563, the log2FoldChange ([3]; gene MPEG1) was 0.584 and the log2FoldChange ([3]; gene MS4A4A) was 0.735. For the same molecule, the log2FoldChange ([3]; gene NCOA3) was −1.438, the “fold change in RNA” value ([3]; gene NCOA3) was −2.7 fold and the log2FoldChange ([3]; gene NREP) was −0.638. The log2FoldChange ([3]; gene NUCB2) was 0.851, the log2FoldChange ([3]; gene NUMA1) was −0.537 and the log2FoldChange ([3]; gene PGM3) was 0.751. The log2FoldChange ([3]; gene POU2F2) was 2.856, the log2FoldChange ([3]; gene SERPINB2) was 1.255 and the log2FoldChange ([3]; gene SNHG3) was 0.665. The log2FoldChange ([3]; gene SOWAHC) was −0.601, the log2FoldChange ([3]; gene SRGAP2B) was −0.729 and the “fold change in RNA” value ([3]; gene mIR-194-2) was −7.9 fold. For the same molecule, the “hepatocellular carcinoma tumor burden” value [4] was “can reduce” and the “liver fibrosis arising from non-alcoholic steatohepatitis” value [4] was “can reduce”.

Source: patent US12409206B2, “Use of cyclosporine analogues for treating fibrosis” (Hepion Pharmaceuticals, Inc., priority 2020, dated 2025)
